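Compound exposure: 48 hours, 5 concentrations, 96-well plates. GI50 marks 50% less growth.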 Active and inactive are the calls of the source. No stated cut-off is given here; in the data, active = GI50 up to about 1.1 µM and inactive = higher.
Experiments:
Experiment in all cases: growth of human tumour cells (NCI), 48 h
[1] = test system: HT-29
[2] = test system: A498
[3] = test system: EKVX
[4] = test system: SK-OV-3
[5] = test system: OVCAR-3
[6] = test system: UO-31
[7] = test system: U-251
[8] = test system: A549
[9] = test system: Malme-3M
[10] = test system: UACC-257
[11] = test system: HCT-15
[12] = test system: 786-0
[13] = test system: SNB-75
[14] = test system: SK-MEL-28
[15] = test system: KM12
[16] = test system: MOLT-4
[17] = test system: RXF 393
[18] = test system: CCRF-CEM

SMILES	GI50 [1]	GI50 [2]	GI50 [3]	GI50 [4]	GI50 [5]	GI50 [6]	GI50 [7]	GI50 [8]	GI50 [9]	GI50 [10]	GI50 [11] [µM]	GI50 [12]	GI50 [13]	GI50 [14]	GI50 [15]	GI50 [16]	GI50 [17]	GI50 [18]
COc1ccc2c(c1)[n+]([O-])c(C(N)=O)c(N)[n+]2[O-]	61.9 µM (inactive)	> 100 µM (inactive)	> 100 µM (inactive)	> 100 µM (inactive)	32.7 µM (inactive)	> 100 µM (inactive)	86.7 µM (inactive)	> 100 µM (inactive)	> 100 µM (inactive)	28.6 µM (inactive)	61	93.1 µM (inactive)	65.6 µM (inactive)	> 100 µM (inactive)	59.2 µM (inactive)	–	–	–
COC1/C(=C\C(C)=O)c2ccccc2N1C(C)=O (stereo not drawn)	> 100 µM (inactive)	> 100 µM (inactive)	> 100 µM (inactive)	> 100 µM (inactive)	> 100 µM (inactive)	> 100 µM (inactive)	> 100 µM (inactive)	> 100 µM (inactive)	–	> 100 µM (inactive)	> 100	> 100 µM (inactive)	> 100 µM (inactive)	> 100 µM (inactive)	> 100 µM (inactive)	> 100 µM (inactive)	> 100 µM (inactive)	> 100 µM (inactive)
CCOC(=O)C/C(=N\c1cc(C)on1)N(CC)CC.[O-][Cl+3]([O-])([O-])O	> 100 µM (inactive)	> 100 µM (inactive)	> 100 µM (inactive)	> 100 µM (inactive)	> 100 µM (inactive)	> 100 µM (inactive)	> 100 µM (inactive)	> 100 µM (inactive)	> 100 µM (inactive)	–	> 100	> 100 µM (inactive)	> 100 µM (inactive)	> 100 µM (inactive)	> 100 µM (inactive)	> 100 µM (inactive)	–	> 100 µM (inactive)
CCn1c(O)c(C(=O)Nc2cccs2)c(=O)n(CC)c1=S	17.6 µM (inactive)	19.5 µM (inactive)	–	26.7 µM (inactive)	16.6 µM (inactive)	–	11.4 µM (inactive)	18.5 µM (inactive)	19.9 µM (inactive)	22.7 µM (inactive)	14	19.6 µM (inactive)	17.5 µM (inactive)	17.3 µM (inactive)	16.8 µM (inactive)	20 µM (inactive)	–	26.7 µM (inactive)
CC1(SCC(N)C(=O)O)CC(=O)NC1=O (stereo not drawn)	> 100 µM (inactive)	0.42 µM (active)	> 100 µM (inactive)	> 100 µM (inactive)	> 100 µM (inactive)	> 100 µM (inactive)	> 100 µM (inactive)	> 100 µM (inactive)	–	> 100 µM (inactive)	> 100	> 100 µM (inactive)	> 100 µM (inactive)	> 100 µM (inactive)	> 100 µM (inactive)	> 100 µM (inactive)	> 100 µM (inactive)	> 100 µM (inactive)
COc1ccc2c(C(=O)O)cc3cc(OC)c(OC)cc3c2c1	> 100 µM (inactive)	–	> 100 µM (inactive)	> 100 µM (inactive)	> 100 µM (inactive)	> 100 µM (inactive)	> 100 µM (inactive)	> 100 µM (inactive)	> 100 µM (inactive)	> 100 µM (inactive)	> 100	> 100 µM (inactive)	> 100 µM (inactive)	> 100 µM (inactive)	> 100 µM (inactive)	> 100 µM (inactive)	> 100 µM (inactive)	> 100 µM (inactive)
COc1ccc(Br)c(CCCCC(=O)O)c1	> 100 µM (inactive)	> 100 µM (inactive)	> 100 µM (inactive)	> 100 µM (inactive)	> 100 µM (inactive)	–	> 100 µM (inactive)	> 100 µM (inactive)	–	> 100 µM (inactive)	> 100	> 100 µM (inactive)	> 100 µM (inactive)	> 100 µM (inactive)	–	> 100 µM (inactive)	> 100 µM (inactive)	> 100 µM (inactive)
COC(=O)Cc1cc(=O)[nH]c2c1C(=O)CCC2	> 100 µM (inactive)	–	> 100 µM (inactive)	> 100 µM (inactive)	> 100 µM (inactive)	> 100 µM (inactive)	> 100 µM (inactive)	> 100 µM (inactive)	> 100 µM (inactive)	> 100 µM (inactive)	> 100	> 100 µM (inactive)	–	> 100 µM (inactive)	> 100 µM (inactive)	> 100 µM (inactive)	> 100 µM (inactive)	> 100 µM (inactive)
NC1=NC(=O)C(CC(=O)Nc2ccc([N+](=O)[O-])cc2[N+](=O)[O-])S1 (stereo not drawn)	> 100 µM (inactive)	–	> 100 µM (inactive)	–	> 100 µM (inactive)	> 100 µM (inactive)	> 100 µM (inactive)	> 100 µM (inactive)	> 100 µM (inactive)	> 100 µM (inactive)	–	> 100 µM (inactive)	92.9 µM (inactive)	> 100 µM (inactive)	> 100 µM (inactive)	> 100 µM (inactive)	> 100 µM (inactive)	> 100 µM (inactive)

Source: ChEMBL document CHEMBL1201862, “PubChem BioAssay data set” (2004)
